Remaining activity data for one compound are collected here from publication PMC8645336, “Benchmarking a highly selective USP30 inhibitor for enhancement of mitophagy and pexophagy” (Life Science Alliance, 2021).

The target in one assay is T1, USP28 (Homo sapiens, UniProt Q96RU2).
T1 sequence (Q96RU2 1-1077): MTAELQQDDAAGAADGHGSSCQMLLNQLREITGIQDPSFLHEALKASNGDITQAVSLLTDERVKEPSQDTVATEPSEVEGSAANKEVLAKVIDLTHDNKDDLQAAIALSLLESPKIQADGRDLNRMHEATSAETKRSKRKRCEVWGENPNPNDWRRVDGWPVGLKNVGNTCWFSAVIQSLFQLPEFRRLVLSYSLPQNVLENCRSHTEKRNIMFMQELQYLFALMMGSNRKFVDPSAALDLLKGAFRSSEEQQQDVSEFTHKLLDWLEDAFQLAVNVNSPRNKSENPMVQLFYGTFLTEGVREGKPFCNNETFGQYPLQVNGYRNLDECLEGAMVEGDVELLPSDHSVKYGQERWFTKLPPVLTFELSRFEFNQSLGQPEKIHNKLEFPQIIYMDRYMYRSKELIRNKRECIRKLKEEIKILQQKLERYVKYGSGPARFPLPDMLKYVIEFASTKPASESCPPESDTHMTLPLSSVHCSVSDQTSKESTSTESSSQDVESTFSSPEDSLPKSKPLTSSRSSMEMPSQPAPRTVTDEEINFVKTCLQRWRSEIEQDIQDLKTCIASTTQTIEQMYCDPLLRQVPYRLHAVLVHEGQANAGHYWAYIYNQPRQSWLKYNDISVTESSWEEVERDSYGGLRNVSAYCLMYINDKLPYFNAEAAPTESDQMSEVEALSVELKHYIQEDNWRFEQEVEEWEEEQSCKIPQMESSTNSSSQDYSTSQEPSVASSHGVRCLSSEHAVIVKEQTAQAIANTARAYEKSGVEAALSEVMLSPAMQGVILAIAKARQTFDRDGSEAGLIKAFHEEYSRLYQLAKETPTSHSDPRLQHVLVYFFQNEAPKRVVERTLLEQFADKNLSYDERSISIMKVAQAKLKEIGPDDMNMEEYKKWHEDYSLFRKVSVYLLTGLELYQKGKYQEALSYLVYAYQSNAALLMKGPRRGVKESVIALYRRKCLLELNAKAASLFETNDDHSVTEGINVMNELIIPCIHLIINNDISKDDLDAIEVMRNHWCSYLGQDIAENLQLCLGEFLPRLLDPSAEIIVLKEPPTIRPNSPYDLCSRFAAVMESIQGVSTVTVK
The assay is described as follows: biochemical. Further details: Ubiquigent DUB profiler selectivity panel, remaining enzyme activity as % of control. The note with it: read-out: % of control remaining. In outline: (§1)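 In YFP-PRKN-overexpressing hTERT-RPE1 cells, 1 h antimycin A plus oligomycin A (1 μM each) with CMPD-39, then Western blot of TOMM20 ubiquitylation. Target engagement: 2 h compound, then 10 min HA-Ub-PA at 37°C, read as USP30 shift. DUB panel (>40 enzymes) screened at 1-100 μM.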

The target in a further assay is T2, USP45 (Homo sapiens, UniProt Q70EL2).
T2 sequence (Q70EL2 1-814): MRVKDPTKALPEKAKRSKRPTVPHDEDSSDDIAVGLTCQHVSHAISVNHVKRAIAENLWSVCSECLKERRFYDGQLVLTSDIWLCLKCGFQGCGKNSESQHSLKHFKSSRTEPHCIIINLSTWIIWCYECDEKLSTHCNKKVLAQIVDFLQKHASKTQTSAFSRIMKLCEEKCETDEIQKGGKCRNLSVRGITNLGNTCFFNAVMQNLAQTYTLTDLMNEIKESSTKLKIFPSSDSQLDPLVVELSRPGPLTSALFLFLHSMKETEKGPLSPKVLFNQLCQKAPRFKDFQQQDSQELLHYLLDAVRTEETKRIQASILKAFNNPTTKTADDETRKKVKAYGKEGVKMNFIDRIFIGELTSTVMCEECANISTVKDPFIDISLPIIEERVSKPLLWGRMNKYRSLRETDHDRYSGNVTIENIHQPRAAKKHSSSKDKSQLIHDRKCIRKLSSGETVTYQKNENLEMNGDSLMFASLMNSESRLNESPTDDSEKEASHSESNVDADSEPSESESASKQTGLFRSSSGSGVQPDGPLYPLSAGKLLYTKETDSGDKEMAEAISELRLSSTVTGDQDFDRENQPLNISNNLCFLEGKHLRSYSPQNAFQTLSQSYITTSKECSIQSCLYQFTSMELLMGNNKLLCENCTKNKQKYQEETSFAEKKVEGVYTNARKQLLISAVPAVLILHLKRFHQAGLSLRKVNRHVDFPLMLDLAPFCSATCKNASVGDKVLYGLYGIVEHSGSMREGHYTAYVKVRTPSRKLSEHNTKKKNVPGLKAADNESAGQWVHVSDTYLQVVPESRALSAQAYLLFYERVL
The assay is described as follows: biochemical. Set-up: Ubiquigent DUB profiler selectivity panel, remaining enzyme activity as % of control. The note with it: read-out: % of control remaining. Put shortly:
as §1

`CC(C)(C)NS(=O)(=O)c1ccc(NC(=O)[C@H](Cc2ccccc2)NC(=O)c2ccc(F)cc2)cc1` [compound 39, CMPD-39]: on USP28, the remaining activity at 1 µM amounted to 96.5%, the remaining activity at 10 µM came out at 94.2% and the remaining activity at 100 µM worked out at 102%. At USP45, the remaining activity at 1 µM stood at 98.8%, the remaining activity at 10 µM worked out at 95% and the remaining activity at 100 µM is 100%.
